These results are taken from patent publication US20260207604A1, “COMPOUND AND USE THEREOF” (ONQUALITY PHARMACEUTICALS CHINA LTD., priority 2022, published 2026).

One data set concerns the target CDK7/cyclin H (Homo sapiens, UniProt P50613). In words: KinaseProfile radiometric protein kinase assay, CDK7/cyclin H. Format: biochemical. As to the method: (§1) The KinaseProfile radiometric protein kinase assay was used to evaluate the inhibitory activity of the compounds against CDK2/cyclin E, CDK4/cyclin D, CDK6/cyclin D, CDK7/cyclin H and CDK9/cyclin T.
(§2) The compounds were prepared in 100% DMSO at a final 50× stock concentration. The working stock solution was added as the first component to the assay wells. CDK2/cyclin E, CDK4/cyclin D, CDK6/cyclin D, CDK7/cyclin H, and CDK9/cyclin T were added in their respective kinase buffers: (CDK4: 8 mM MOPS pH 7.0, 0.2 mM EDTA, 0.03% BSA, 0.03% Tween 20, 20 mM DTT, and 0.2 mg/ml Rb fragment, 10 mM Magnesium acetate; CDK2, CDK6: 8 mM MOPS pH 7.0, 0.2 mM EDTA, 0.1 mg/mL histone H1, 10 mM Magnesium acetate; CDK7: 8 mM MOPS pH 7.0, 0.2 mM EDTA, 500 μM peptide, 10 mM Magnesium acetate; CDK9: 8 mM MOPS pH 7.0, 0.2 mM EDTA, 100 μM […], 10 mM Magnesium acetate) and [γ-^33 P-ATP] was included in the reaction mixture. The reaction was initiated by the addition of the Mg/ATP mixture and incubated at room temperature for 40 minutes. The reaction was terminated by the addition of 0.5% phosphoric acid. Then, 10 μL of the reaction mixture was spotted onto P30 filter pads, washed four times (1 minute each) with 0.425% phosphoric acid, followed by a single wash with methanol. The pads were then dried and counted. The data were recorded, inhibition rates were calculated, and IC50 values were determined accordingly. Table 2 summarizes the in vitro enzymatic inhibitory activity of the compounds of the present application.

Another data set has as its target CDK9/cyclin T (Homo sapiens, UniProt P50750). In words: KinaseProfile radiometric protein kinase assay, CDK9/cyclin T. It counts as biochemical. The protocol: as §1, §2
The target in a further data set is CDK6/cyclin D (Homo sapiens, UniProt Q00534). In words: KinaseProfile radiometric protein kinase assay, CDK6/cyclin D. It counts as biochemical. As to the method:
as §1, §2

Another data set addresses CDK2/cyclin E (Homo sapiens, UniProt P24941). Description: KinaseProfile radiometric protein kinase assay, CDK2/cyclin E. It counts as biochemical. As to the method:
as §1, §2

Data set [1] concerns 5-FU-induced diarrhea model. Description: 5-FU-induced diarrhea model, 5-FU 3-day model. Format: in vivo, Balb/c mice. Particulars: 5-FU 60 mg/kg once a day for 3 days, mice. The protocol: The 5-FU-induced diarrhea model was used as an experimental model of the present invention to evaluate the in vivo activity of the compounds.
Balb/c mice (20-25 g, 7-8 weeks old, Jihui) were acclimated for one week and then randomly assigned to 3 groups (n=10 per group): control group, 5-FU group, and CDK inhibitor group. […] […] […] From Day 1 to Day 7, diarrhea severity was assessed daily for each mouse according to the diarrhea scoring system.
The diarrhea scoring system was based on the method by Akinobu Kurita (Cancer Chemother Pharmacol 2000; 46:211-20), Grade 0: normal stool; Grade 1: mild diarrhea, slightly soft stool and wet stool; Grade 2: moderate diarrhea, loose stool with slight perianal staining; Grade 3: severe diarrhea, loose watery stool with severe perianal staining.
The diarrhea relief rate (%) was calculated as follows: […]

Data set [2] relates to MCF-7 human breast cancer cells. In words: Cell viability assay (CELLTITER-GLO). Particulars: MCF7, 168 h, MCF-7 cells, 7 days. Format: cell-based. The protocol:
The cell viability of MCF-7 human breast cancer cells under standard culture conditions was assessed using the CELLTITER-GLO assay. MCF-7 cells were seeded at 3,000 cells per well in 96-well plates and incubated overnight in a CO2 incubator. The next day, serial dilutions of Compound 1 at various concentrations were added to the wells. The plates were returned to the incubator and cultured for 7 days. After 7 days, the plates were equilibrated at room temperature for 30 minutes. Subsequently, 100 μL of CELLTITER-GLO detection solution was added. The cells were mixed on an orbital shaker for 5 min and then incubated for additional 10 min. The plate was read with an ENVISION reader. Data were processed and analyzed to determine the IC50 values.
(In general: In ATP-based viability assays light output follows the ATP content of the culture.)

Data set [3] concerns Irinotecan-induced constipation model. Description: Irinotecan-induced constipation model. Format: in vivo, Sprague-Dawley rats. The conditions noted are these: irinotecan 260 mg/kg once a day, 1 day, rats. An excerpt: Sprague-Dawley rats (180-200 g, 7-8 weeks old, Jihui) were acclimated for 7 days and randomly divided into three groups: control group, irinotecan group, and CDK inhibitor group, with 10 rats per group. The control group received the same vehicle orally as the CDK inhibitor group, followed by an injection of the same vehicle as the irinotecan group; the irinotecan group received the same oral vehicle as the CDK inhibitor group, followed by an injection of irinotecan; the CDK inhibitor group received the CDK inhibitor orally, followed by an injection of irinotecan.
From Day 2 to Day 7, the degree of constipation was assessed for each rat based on the following score:
Constipation assessment: Feces excreted within a 3-hour period were collected and evaluated for morphology and weight using an electronic balance. Stool reduction rate was calculated according to the method of Ji Eun Kim (Lab Anim Res. 2016 December; 32(4): 231-240). Stool reduction rate (%)=(Control group−Irinotecan or CDK inhibitor group)/Control group×100%.
The constipation relief rate of the CDK inhibitor was calculated as follows: Relief rate (%)=([…])/Irinotecan group stool reduction rate×100%.

In data set [4] the test system is Human colorectal cancer COLO205 cells. In words: Cell apoptosis assay (Caspase-Glo 3/7), 5-FU-induced apoptosis. Format: cell-based. As to the method:
The Caspase-Glo® 3/7 assay was employed to evaluate the protective effect of the compounds of the present invention against 5-fluorouracil (5-FU)-induced apoptosis. Human colorectal cancer COLO205 cells were cultured in RPMI 1640 medium (Invitrogen) in an incubator at 37° C. with 5% CO2.
COLO205 cells were seeded in 96-well plates at a density of 4,000 cells per well and incubated overnight. On the following day, serially diluted concentrations of Compound 1 were added to the wells and incubated for 16 hours. Afterward, 5-FU was added and the cells were incubated for an additional 48 hours. Subsequently, Caspase-Glo® 3/7 reagent (100 μL) was added to each well. The cells were mixed on an orbital shaker for 10 min and incubated at room temperature for 2 h. After an additional 10-minute incubation, the plate was measured using the Envision instrument and the data was processed. Relief rate (%)=(5-FU group−CDK group)/5-FU group×100%.

Where [5] appears, read: 25 mg/kg oral twice a day for 3 days.
The mark [6] stands for this setting: 50 mg/kg oral twice a day for 3 days.
Setting [7] is: 100 mg/kg oral twice a day for 3 days.
Setting [8] is: 100 mg/kg oral twice a day for 3.5 days.
Setting [9] is: 25 mg/kg oral, 4 hours before irinotecan and 8 hours after irinotecan.
Setting [10] is: 50 mg/kg oral, 6 hours before irinotecan and 6 hours after irinotecan.
Where [11] appears, read: 100 mg/kg oral, 6 hours before irinotecan and 6 hours after irinotecan.
The mark [12] stands for this setting: 10 mg/kg oral twice a day for 3 days.
Setting [13] is: 50 mg/kg oral twice a day for 4 days.

The structures appear in SMILES notation. Like-named read-outs stand apart in the source and are kept apart here.

Sequence of CDK9/cyclin T (P50750 whole entry): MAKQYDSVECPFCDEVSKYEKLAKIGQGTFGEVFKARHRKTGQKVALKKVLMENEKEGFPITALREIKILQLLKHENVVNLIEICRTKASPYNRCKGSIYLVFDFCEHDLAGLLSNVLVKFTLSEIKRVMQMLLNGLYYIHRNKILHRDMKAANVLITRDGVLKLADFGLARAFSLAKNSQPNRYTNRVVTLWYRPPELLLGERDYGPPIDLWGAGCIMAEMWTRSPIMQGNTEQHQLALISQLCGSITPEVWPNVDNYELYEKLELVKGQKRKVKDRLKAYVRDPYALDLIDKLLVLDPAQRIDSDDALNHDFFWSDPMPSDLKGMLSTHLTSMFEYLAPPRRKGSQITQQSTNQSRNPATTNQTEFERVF
Sequence of CDK9/cyclin T (O60563 whole entry partner): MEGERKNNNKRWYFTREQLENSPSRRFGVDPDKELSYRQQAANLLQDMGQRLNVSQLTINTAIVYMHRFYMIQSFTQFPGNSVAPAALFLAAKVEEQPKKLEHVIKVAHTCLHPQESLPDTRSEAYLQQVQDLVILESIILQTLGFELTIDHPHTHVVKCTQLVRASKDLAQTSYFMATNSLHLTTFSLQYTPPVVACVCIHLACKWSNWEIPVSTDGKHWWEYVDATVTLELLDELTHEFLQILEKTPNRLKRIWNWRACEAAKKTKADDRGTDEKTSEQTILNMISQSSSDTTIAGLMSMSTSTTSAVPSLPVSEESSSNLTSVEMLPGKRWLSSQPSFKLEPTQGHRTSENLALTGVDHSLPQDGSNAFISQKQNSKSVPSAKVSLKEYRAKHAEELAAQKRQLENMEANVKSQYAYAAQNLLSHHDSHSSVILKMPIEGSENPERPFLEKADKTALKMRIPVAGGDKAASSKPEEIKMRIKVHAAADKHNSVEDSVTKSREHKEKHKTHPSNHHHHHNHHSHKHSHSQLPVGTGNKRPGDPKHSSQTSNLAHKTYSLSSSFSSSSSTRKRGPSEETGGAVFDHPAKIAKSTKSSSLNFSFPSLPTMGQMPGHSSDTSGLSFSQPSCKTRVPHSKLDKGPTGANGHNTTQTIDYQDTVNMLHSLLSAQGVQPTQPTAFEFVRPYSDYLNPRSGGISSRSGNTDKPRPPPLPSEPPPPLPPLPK
Sequence of CDK6/cyclin D (Q00534 whole entry): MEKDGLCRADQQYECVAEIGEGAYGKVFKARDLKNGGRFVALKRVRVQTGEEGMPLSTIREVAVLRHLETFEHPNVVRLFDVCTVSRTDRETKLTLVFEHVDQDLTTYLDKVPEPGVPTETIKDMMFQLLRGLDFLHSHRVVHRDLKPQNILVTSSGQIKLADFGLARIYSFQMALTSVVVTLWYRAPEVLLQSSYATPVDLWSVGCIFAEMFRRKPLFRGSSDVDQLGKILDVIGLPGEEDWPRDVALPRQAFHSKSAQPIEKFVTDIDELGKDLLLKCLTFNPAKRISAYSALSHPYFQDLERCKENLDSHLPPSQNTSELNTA
Sequence of CDK6/cyclin D (P30281 whole entry partner): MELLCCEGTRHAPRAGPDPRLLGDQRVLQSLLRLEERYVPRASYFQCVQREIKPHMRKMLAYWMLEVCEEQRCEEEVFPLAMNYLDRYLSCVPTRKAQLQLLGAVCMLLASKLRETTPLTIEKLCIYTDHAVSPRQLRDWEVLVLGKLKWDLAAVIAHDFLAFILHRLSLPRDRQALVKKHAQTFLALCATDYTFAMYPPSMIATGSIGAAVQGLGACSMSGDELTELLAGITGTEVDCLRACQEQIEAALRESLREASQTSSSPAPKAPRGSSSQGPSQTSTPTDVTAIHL
Sequence of CDK7/cyclin H (P50613 whole entry, the tested form may be a part): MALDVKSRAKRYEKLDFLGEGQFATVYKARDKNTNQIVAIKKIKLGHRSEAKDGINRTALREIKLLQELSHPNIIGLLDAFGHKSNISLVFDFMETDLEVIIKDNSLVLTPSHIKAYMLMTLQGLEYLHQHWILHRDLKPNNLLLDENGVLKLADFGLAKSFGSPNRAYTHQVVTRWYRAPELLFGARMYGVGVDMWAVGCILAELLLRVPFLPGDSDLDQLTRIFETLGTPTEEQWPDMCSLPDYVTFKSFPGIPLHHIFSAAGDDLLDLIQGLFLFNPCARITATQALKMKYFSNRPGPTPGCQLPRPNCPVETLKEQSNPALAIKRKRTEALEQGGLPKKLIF
Sequence of CDK7/cyclin H (P51946 whole entry partner, the tested form may be a part): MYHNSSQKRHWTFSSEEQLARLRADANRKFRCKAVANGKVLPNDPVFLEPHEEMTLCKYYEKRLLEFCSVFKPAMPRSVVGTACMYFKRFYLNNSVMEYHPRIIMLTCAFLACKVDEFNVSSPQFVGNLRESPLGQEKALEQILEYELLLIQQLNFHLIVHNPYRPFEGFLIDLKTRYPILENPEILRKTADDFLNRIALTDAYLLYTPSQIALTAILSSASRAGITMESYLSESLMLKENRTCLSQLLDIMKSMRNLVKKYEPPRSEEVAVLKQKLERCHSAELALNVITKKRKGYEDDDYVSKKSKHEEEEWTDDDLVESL
Sequence of CDK7/cyclin H (P51948 whole entry partner, the tested form may be a part): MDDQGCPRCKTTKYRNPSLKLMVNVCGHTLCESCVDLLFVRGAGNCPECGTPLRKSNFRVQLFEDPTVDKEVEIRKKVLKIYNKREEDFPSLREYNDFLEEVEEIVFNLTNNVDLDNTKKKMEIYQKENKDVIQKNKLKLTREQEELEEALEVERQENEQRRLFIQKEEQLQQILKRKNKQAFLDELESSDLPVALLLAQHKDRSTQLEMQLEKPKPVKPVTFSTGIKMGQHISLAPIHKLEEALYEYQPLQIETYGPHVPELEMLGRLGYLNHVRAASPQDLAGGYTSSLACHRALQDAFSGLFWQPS

Take `CC(=O)c1c(C)c2c(n(C3CCCC3)c1=O)=NC(Nc1ccc(N3CCN(S(=O)(=O)NCCN)CC3)cn1)NC=2` (stereo not drawn) [Compound 1]: the IC50 against CDK7/cyclin H is above 10 µM; at CDK9/cyclin T it was above 1 µM; at CDK6/cyclin D it was below 0.05 µM; on CDK2/cyclin E it was above 10 µM; in data set [2] (read-out: Absolute IC 50), below 1 µM; in data set [2] (read-out: Relative IC 50), below 1 µM. Besides, the diarrhea relief rate in data set [1] (10 mg/kg oral twice a day for 3.5 days) turned out to be 40%; in data set [1] (setting [5]), 60%; in data set [1] (setting [6]) it was 40%; in data set [1] (75 mg/kg oral twice a day for 4 days), 55%; in data set [1] (setting [7]), 50%; in data set [1] (setting [8]) it was 40%. Also, the constipation relief rate is reported as 20% in data set [3] (2.5 mg/kg oral, 4 hours before irinotecan and 8 hours after irinotecan); 30% in data set [3] (5 mg/kg oral, 6 hours before irinotecan and 6 hours after irinotecan); 75% in data set [3] (setting [9]); 50% in data set [3] (setting [10]); 40% in data set [3] (100 mg/kg oral, 4 hours before irinotecan and 8 hours after irinotecan); 40% in data set [3] (setting [11]). Besides, the “Relief rate of 5-FU -induced cell apoptosis” value (shortened to “Relief rate of 5-FU”) worked out at 30% in data set [4] (concentration 0.1 μM), 60% in data set [4] (concentration 1 μM), 80% in data set [4] (concentration 5 μM) and 40% in data set [4] (concentration 25 μM).

For `CC(=O)c1c(C)c2cnc(Nc3ccc(N4CCN(S(=O)(=O)NCC(C)(C)N)CC4)cn3)nc2n(C2CCCC2)c1=O` [Compound 2], the IC50 at CDK7/cyclin H is above 3 µM; on CDK9/cyclin T it was above 1 µM; against CDK6/cyclin D it was below 0.05 µM; on CDK2/cyclin E, above 10 µM; in data set [2] (read-out: Absolute IC 50) it was below 0.5 µM; in data set [2] (read-out: Relative IC 50), below 1 µM. Further, the diarrhea relief rate in data set [1] (setting [12]) was determined as 25%; in data set [1] (setting [5]), 40%; in data set [1] (25 mg/kg oral twice a day for 3.5 days), 50%; in data set [1] (setting [6]), 60%; in data set [1] (setting [13]), 40%; in data set [1] (setting [8]) it was 50%. In addition, the constipation relief rate is reported as 25% in data set [3] (5 mg/kg oral, 4 hours before irinotecan and 8 hours after irinotecan); 80% in data set [3] (50 mg/kg oral, 4 hours before irinotecan and 8 hours after irinotecan); 80% in data set [3] (setting [11]); 60% in data set [3] (150 mg/kg oral, 6 hours before irinotecan and 6 hours after irinotecan). In addition, the “Relief rate of 5-FU” value is reported as 40% in data set [4] (concentration 1 μM), 50% in data set [4] (concentration 5 μM), 70% in data set [4] (concentration 10 μM) and 40% in data set [4] (concentration 50 μM).

On to `CC(=O)c1c(C)c2cnc(Nc3ccc(N4CCN(S(=O)(=O)NCC(C)(C)CN)CC4)cn3)nc2n(C2CCCC2)c1=O` [Compound 6], for which the IC50 at CDK7/cyclin H is above 3 µM; against CDK9/cyclin T, above 1 µM; on CDK6/cyclin D, below 0.1 µM; against CDK2/cyclin E, above 10 µM; in data set [2] (read-out: Absolute IC 50) it was below 1 µM; in data set [2] (read-out: Relative IC 50) it was below 1 µM. The diarrhea relief rate turned out to be 30% in data set [1] (setting [12]); 50% in data set [1] (20 mg/kg oral twice a day for 3.5 days); 50% in data set [1] (30 mg/kg oral twice a day for 3 days); 75% in data set [1] (setting [13]); 60% in data set [1] (80 mg/kg oral twice a day for 3.5 days); 60% in data set [1] (setting [7]). Also, the constipation relief rate in data set [3] (10 mg/kg oral, 4 hours before irinotecan and 8 hours after irinotecan) is listed as 40%; in data set [3] (setting [9]), 75%; in data set [3] (25 mg/kg oral, 6 hours before irinotecan and 6 hours after irinotecan), 60%; in data set [3] (setting [10]), 75%; in data set [3] (150 mg/kg oral, 12 hours before irinotecan), 25%. The “Relief rate of 5-FU” value in data set [4] (concentration 0.1 μM) came to 20%; in data set [4] (concentration 1 μM), 40%; in data set [4] (concentration 5 μM) it was 60%; in data set [4] (concentration 25 μM), 70%.
